Reference: patent US8999981B2, “3-amido-pyrrolo[3,4-C]pyrazole-5(1H, 4H,6H) carbaldehyde derivatives” (Pfizer Inc., priority 2007, dated 2015)

Molecular target: Protein Kinase C beta 2 (PKCβII) (Homo sapiens (Human), UniProt P05771)
Assay: PKCβII coupled PK/LDH spectrophotometric kinase assay
Type: biochemical
Details: apparent Ki, ATP-competitive model (Morrison equation); 0.1 mM ATP, 30° C.; read-out: PKCb Ki
Method: This transfer is coupled to the oxidation of β-NADH through the activities of Pyruvate Kinase (PK) and Lactate Dehydrogenase (LDH). β-NADH conversion to NAD+ is monitored by the decrease in absorbance at 340 nm (e=6.22 cm^−1 mM^−1) using a Molecular Devices SPECTRA max PLUS spectrophotometer.
A typical assay was carried out on a 96-well, clear microtiter plate in a Molecular Devices spectrophotometer for 20 minutes at 30° C. in 0.1 mL of assay buffer containing 50 mM HEPES, pH 7.4, 5 nM PKC, 23 units of pyruvate kinase, 33 units of lactate dehydrogenase, 0.15 mM peptide, 0.1 mM ATP, 1 mM DTT, 4 mM PEP, 8 mM MgCl2, 0.3 mM NADH, 60 mM CaCl2, 10 mg/mL PS, 50 ng/mL PMA, 7.5% DMSO and from about 10,000 nM to 0.169 nM compound inhibitor. Stock solutions of 3-sn-phosphatidyl-L-serine (PS) and phorbol-12-myristate-13-acetate (PMA) were sonicated for 30 seconds just prior to addition to assay buffer and assays were initiated by the addition of 100 μM ATP.
Enzyme turnover values (kcat) were calculated according to […], where [E] is the total enzyme concentration. Enzyme inhibition constants (apparent K values) were determined by fitting initial velocities at variable inhibitor concentrations to a model for ATP competitive inhibition based on the Morrison equation). Morrison, J. F., Biochim. Biophys Acta 185: 269-286 (1969).

Sequence of Protein Kinase C beta 2 (PKCβII) (P05771 other isoform, or with tags, fused parts or gaps): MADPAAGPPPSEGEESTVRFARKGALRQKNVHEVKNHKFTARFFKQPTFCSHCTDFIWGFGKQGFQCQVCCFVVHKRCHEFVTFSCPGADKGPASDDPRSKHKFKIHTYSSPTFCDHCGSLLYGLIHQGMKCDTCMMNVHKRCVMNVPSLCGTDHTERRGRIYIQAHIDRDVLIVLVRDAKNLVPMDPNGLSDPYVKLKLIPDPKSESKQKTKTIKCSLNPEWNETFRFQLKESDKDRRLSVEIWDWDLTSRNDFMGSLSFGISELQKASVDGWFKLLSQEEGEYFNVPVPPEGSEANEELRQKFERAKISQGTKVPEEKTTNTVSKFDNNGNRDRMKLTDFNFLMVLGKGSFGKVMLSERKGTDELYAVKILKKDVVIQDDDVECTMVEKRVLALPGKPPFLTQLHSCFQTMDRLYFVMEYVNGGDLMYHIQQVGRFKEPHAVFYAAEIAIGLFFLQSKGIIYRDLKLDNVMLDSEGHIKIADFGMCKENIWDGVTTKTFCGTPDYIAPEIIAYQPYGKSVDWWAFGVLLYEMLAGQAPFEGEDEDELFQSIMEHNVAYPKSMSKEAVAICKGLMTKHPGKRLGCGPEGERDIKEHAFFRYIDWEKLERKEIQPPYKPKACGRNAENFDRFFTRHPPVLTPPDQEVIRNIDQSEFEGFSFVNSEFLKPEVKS

Question: How did the Ki turn out when C[C@H]1CN2CCC[C@H]2CN1C(=O)N1Cc2c(NC(=O)c3ccccn3)n[nH]c2C1(C)C [Example A1, N-(6,6-Dimethyl-5-((3S,8aS)-3-methyl-octahydropyrrolo[1,2-a]pyrazine-2-carbonyl)-1,4,5,6-tetrahydropyrrolo[3,4-c]pyrazol-3-yl)picolinamide] was run?
Answer: Its Ki is 29.2 nM.

Question: For CC1(C)c2[nH]nc(NC(=O)c3ccccn3)c2CN1C(=O)N1C[C@@H]2CCCN2C[C@@H]1CC1CCCCC1 [Example A56], which Ki is on record?
Answer: Its Ki is 18.1 nM.

Question: Which Ki does the source give for C[C@H]1CN(C)[C@H](CCO)CN1C(=O)N1Cc2c(NC(=O)c3ccccn3)n[nH]c2C1(C)C [Example A150] here?
Answer: The Ki was 42 nM.

Question: With CC[C@H](C)[C@H]1CN2C[C@H](O)C[C@H]2CN1C(=O)N1Cc2c(NC(=O)c3ccccn3)n[nH]c2C1(C)C [Example A84] as the compound, how does the Ki read?
Answer: Its Ki is 139 nM.

Question: Which Ki does the source give for Cc1ncoc1C(=O)Nc1n[nH]c2c1CN(C(=O)N1C[C@@H](C)N(C)C[C@@H]1C)C2(C)C [Example C5] here?
Answer: The Ki was 46.5 nM.

Question: For C[C@H]1CN2C[C@H]3CC3[C@H]2CN1C(=O)N1Cc2c(NC(=O)c3ccccn3)n[nH]c2C1(C)C (stereo partly shown) [Example A104], which Ki is on record?
Answer: The Ki was 83.7 nM.

Question: COCCCN1C[C@H](C)N(C(=O)N2Cc3c(NC(=O)c4ocnc4C)n[nH]c3C2(C)C)C[C@H]1C [Example F8] was tested. Which Ki did it give?
Answer: The Ki was 95.6 nM.

Question: How did the Ki turn out when Cn1ccnc1C(=O)Nc1n[nH]c2c1CN(C(=O)N1C[C@@H]3CCCN3C[C@@H]1Cc1ccccc1)C2(C)C [Example A26] was run?
Answer: The Ki was 69.3 nM.

Question: With COCCCN1C[C@H](C)N(C(=O)N2Cc3c(NC(=O)c4oc(C)cc4C)n[nH]c3C2(C)C)C[C@H]1C [Example F5] as the compound, how does the Ki read?
Answer: Its Ki is 71.8 nM.

Question: With C[C@H]1CN2CCC[C@H]2CN1C(=O)N1Cc2c(NC(=O)c3cc(Cl)ccc3F)n[nH]c2C1(C)C [Example A33] as the compound, how does the Ki read?
Answer: The Ki was 82.7 nM.

Question: With C[C@H]1CN2CCC[C@H]2CN1C(=O)N1Cc2c(NC(=O)c3ccc4c(c3)CCO4)n[nH]c2C1(C)C [Example A64] as the compound, how does the Ki read?
Answer: The Ki was 15.9 nM.

Question: How did the Ki turn out when CC(C)c1csc(C(=O)Nc2n[nH]c3c2CN(C(=O)N2C[C@@H]4CCCN4C[C@@H]2C)C3(C)C)n1 [Example A55] was run?
Answer: The Ki was 177 nM.

Question: With COc1cccc(C(=O)Nc2n[nH]c3c2CN(C(=O)N2C[C@@H]4CCCN4C[C@@H]2C)C3(C)C)c1 [Example A39] as the compound, how does the Ki read?
Answer: The Ki was 47.4 nM.

Question: Which Ki does the source give for C[C@H]1CN2CCC[C@H]2CN1C(=O)N1Cc2c(NC(=O)c3c(F)cccc3C(F)(F)F)n[nH]c2C1(C)C [Example A37] here?
Answer: Its Ki is 155 nM.

Question: For COCCCN1C[C@H](C)N(C(=O)N2Cc3c(NC(=O)c4ccc(F)cn4)n[nH]c3C2(C)C)C[C@H]1C [Example A163], which Ki is on record?
Answer: Its Ki is 24.5 nM.

Question: CCc1ccc(C(=O)Nc2n[nH]c3c2CN(C(=O)N2C[C@@H](C)N(C4CCOCC4)C[C@@H]2C)C3(C)C)nc1 [Example F51] was tested. Which Ki did it give?
Answer: Its Ki is < 10 nM.

Question: With CC1CN(C(=O)N2Cc3c(NC(=O)c4ccccn4)n[nH]c3C2(C)C)C(C)CN1 (stereo not shown) [Example A46] as the compound, how does the Ki read?
Answer: Its Ki is 36.2 nM.

Question: For Cc1nc(C(=O)Nc2n[nH]c3c2CN(C(=O)N2C[C@@H](C)N(CC4CCOCC4)C[C@@H]2C)C3(C)C)c(C)o1 [Example F23], which Ki is on record?
Answer: Its Ki is 31.3 nM.

Question: Which Ki does the source give for C[C@@H]1CN(C(=O)N2Cc3c(NC(=O)c4cn(C)cn4)n[nH]c3C2(C)C)[C@@H](C)CN1CC1CCOCC1 [Example F9] here?
Answer: Its Ki is 62.4 nM.

Question: COc1ccc(C(=O)Nc2n[nH]c3c2CN(C(=O)N2C[C@@H](C)N(C4CCOCC4)C[C@@H]2C)C3(C)C)nc1 [Example F55] was tested. Which Ki did it give?
Answer: Its Ki is < 10 nM.

Question: Which Ki does the source give for C[C@@H]1CN(C(=O)N2Cc3c(NC(=O)c4cc(C5CC5)on4)n[nH]c3C2(C)C)[C@@H](C)CN1C [Example A140] here?
Answer: The Ki was 26.8 nM.

Question: Which Ki does the source give for C[C@@H]1CN(C(=O)N2Cc3c(NC(=O)c4ccncn4)n[nH]c3C2(C)C)[C@@H](C)CN1C1CCOCC1 [Example F53] here?
Answer: Its Ki is 24 nM.

Question: CC1(C)c2[nH]nc(NC(=O)c3cccc(Oc4ccccc4)c3)c2CN1C(=O)N1CCNCC1c1ccccc1 (stereo not shown) [Example A10] was tested. Which Ki did it give?
Answer: The Ki was 55.9 nM.

Question: For Cc1cc(C(=O)Nc2n[nH]c3c2CN(C(=O)N2C[C@@H]4CCCN4C[C@@H]2C)C3(C)C)n(C)n1 [Example A42], which Ki is on record?
Answer: The Ki was 67.9 nM.

Question: C[C@@H]1CN(C(=O)N2Cc3c(NC(=O)c4ccn(C)n4)n[nH]c3C2(C)C)[C@@H](C)CN1CC1CCOCC1 [Example F16] was tested. Which Ki did it give?
Answer: The Ki was 25.8 nM.
